The target in the assay is T1, human mGlu5a receptor (Homo sapiens, UniProt P41594).
T1 construct: expressed in transfected cells; host or cells: EBNA cells (transient transfection); membranes prepared from them
T1 sequence (P41594 21-1180 isoform P41594-2 limits assumed): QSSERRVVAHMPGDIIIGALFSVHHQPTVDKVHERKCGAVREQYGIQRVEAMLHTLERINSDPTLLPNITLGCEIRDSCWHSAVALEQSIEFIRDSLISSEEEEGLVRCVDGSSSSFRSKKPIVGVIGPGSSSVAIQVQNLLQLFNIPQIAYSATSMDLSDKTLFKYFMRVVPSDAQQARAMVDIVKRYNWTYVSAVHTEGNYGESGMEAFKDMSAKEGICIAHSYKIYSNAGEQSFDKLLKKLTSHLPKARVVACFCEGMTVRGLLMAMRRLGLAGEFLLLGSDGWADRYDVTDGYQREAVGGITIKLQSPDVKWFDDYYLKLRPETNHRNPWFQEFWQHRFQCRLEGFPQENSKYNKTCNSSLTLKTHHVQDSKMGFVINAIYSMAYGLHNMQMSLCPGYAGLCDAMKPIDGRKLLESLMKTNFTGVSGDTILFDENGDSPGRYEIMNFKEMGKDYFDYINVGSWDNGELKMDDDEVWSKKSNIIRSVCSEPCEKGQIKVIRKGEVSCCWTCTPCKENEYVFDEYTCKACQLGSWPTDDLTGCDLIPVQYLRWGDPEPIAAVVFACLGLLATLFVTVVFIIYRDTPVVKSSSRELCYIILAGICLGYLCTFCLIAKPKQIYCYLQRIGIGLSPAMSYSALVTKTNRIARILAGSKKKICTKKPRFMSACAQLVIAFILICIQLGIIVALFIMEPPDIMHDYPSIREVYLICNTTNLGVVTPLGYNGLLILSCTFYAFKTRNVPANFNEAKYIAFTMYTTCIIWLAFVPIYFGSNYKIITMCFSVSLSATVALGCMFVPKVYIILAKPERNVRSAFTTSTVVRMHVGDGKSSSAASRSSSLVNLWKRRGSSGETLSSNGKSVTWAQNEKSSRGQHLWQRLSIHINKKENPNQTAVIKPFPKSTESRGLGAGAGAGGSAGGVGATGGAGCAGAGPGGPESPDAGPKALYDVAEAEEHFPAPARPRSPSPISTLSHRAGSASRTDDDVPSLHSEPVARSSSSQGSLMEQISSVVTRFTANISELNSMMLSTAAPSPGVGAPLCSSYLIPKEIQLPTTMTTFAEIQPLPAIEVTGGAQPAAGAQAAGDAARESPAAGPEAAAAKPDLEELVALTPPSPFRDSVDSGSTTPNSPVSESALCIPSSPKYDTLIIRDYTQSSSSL
As to the kind of experiment: mGlu5a receptor binding, displacement of [3H]MPEP. The conditions noted are these: competing radioligand [3H]MPEP; human mGlu5a receptor transiently transfected into EBNA cells; Ki=IC50/1+L/Kd. The protocol:
For binding experiments, cDNA encoding human mGlu5a receptor was transiently transfected into EBNA cells using a procedure described by E.-J. Schlaeger and K. Christensen (Cytotechnology 1998, 15, 1-13). For functional assays, [Ca^2+]i measurements were performed largely as described previously (Porter et al., Br J. Pharmacol 1999, 128, 13-20) on stably expressed recombinant human mGlu 5a receptors in HEK-293 cells. The cells were dye loaded using Fluo 4-AM (purchased from Molecular Probes, 2 μM final concentration) [Ca^2+]i measurements were performed using a fluorometric imaging plate reader (FLIPR, Molecular Devices Corporation, La Jolla, Calif., USA). Antagonist evaluation was performed following a 5 minute preincubation with the test compounds followed by the addition of a submaximal addition of agonist.
The inhibition (antagonists) curves were fitted with a four parameter logistic equation giving IC50, and Hill coefficient using the iterative non linear curve fitting software Xcel fit.
The Ki values of the compounds tested are given. The Ki value is defined by the following formula: Ki=IC50/1+L/Kd in which the IC50 values are those concentrations of the compounds tested in which causes 50% inhibition of the competing radioligand ([^3H]MPEP). [L] is the concentration of radioligand used in the binding experiment and the Kd value of the radioligand is empiracally determined for each batch of membranes prepared.
For orientation: Displacement assays read how much labelled ligand stays bound in the presence of the test substance.
As to `Cc1nc(C#Cc2ccnc(Cl)c2)cn1-c1cccc(=O)n1C` [Example 18, 6-[4-(2-chloro-pyridin-4-ylethynyl)-2-methyl-imidazol-1-yl]-1-methyl-1H-pyridin-2-one], the affinity, expressed as Ki, was 559 nM.
For `Cc1nc(C#Cc2ccnc(Cl)c2)cn1-c1cncc(=O)[nH]1` [Example 19, 6-[4-(2-chloro-pyridin-4-ylethynyl)-2-methyl-imidazol-1-yl]-1H-pyrazin-2-one] the value was 504 nM; for `Cc1nc(C#Cc2ccnc(Cl)c2)cn1-c1cncc(=O)n1C` [Example 20, 6-[4-(2-chloro-pyridin-4-ylethynyl)-2-methyl-imidazol-1-yl]-1-methyl-1H-pyrazin-2-one], 817 nM; for `Cc1nc(C#Cc2cccc(Cl)c2)cn1-c1cnn(C)c(=O)c1` [Example 21, 5-[4-(3-chloro-phenylethynyl)-2-methyl-imidazol-1-yl]-2-methyl-2H-pyridazin-3-one], 40 nM.
Consider `Cc1nc(C#Cc2ccnc(Cl)c2)cn1-c1cnn(C)c(=O)c1` [Example 22, 5-[4-(2-chloro-pyridin-4-ylethynyl)-2-methyl-imidazol-1-yl]-2-methyl-2H-pyridazin-3-one], for which the affinity corresponds to a Ki of 384 nM.
As for `Cc1cccc(C#Cc2cn(-c3cnn(C)c(=O)c3)c(C)n2)c1` [Example 23, 2-Methyl-5-(2-methyl-4-m-tolylethynyl-imidazol-1-yl)-2H-pyridazin-3-one], the figure is 52 nM; as for `Cc1nc(C#Cc2ccnc(Cl)c2)cn1-c1cc(=O)n(C)cn1` [Example 24, 6-[4-(2-chloro-pyridin-4-ylethynyl)-2-methyl-imidazol-1-yl]-3-methyl-3H-pyrimidin-4-one], 277 nM.
Turning to `Cc1nc(C#Cc2cccc(Cl)c2)c(C)n1-c1cc[nH]c(=O)c1` [Example 25, 4-[4-(3-chloro-phenylethynyl)-2,5-dimethyl-imidazol-1-yl]-1H-pyridin-2-one], the Ki (usually a measure of affinity in units of concentration, obtained from inhibition or displacement) was 148 nM.
For `Cc1nc(C#Cc2cccc(Cl)c2)c(C)n1-c1ccn(C)c(=O)c1` [Example 26, 4-[4-(3-chloro-phenylethynyl)-2,5-dimethyl-imidazol-1-yl]-1-methyl-1H-pyridin-2-one] the value was 33 nM; for `CCn1ccc(-n2c(C)nc(C#Cc3cccc(Cl)c3)c2C)cc1=O` [Example 27, 4-[4-(3-chloro-phenylethynyl)-2,5-dimethyl-imidazol-1-yl]-1-ethyl-1H-pyridin-2-one], 40 nM.
For `Cc1nc(C#Cc2cccc(Cl)c2)c(C)n1-c1ccn(CCO)c(=O)c1` [Example 28, 4-[4-(3-chloro-phenylethynyl)-2,5-dimethyl-imidazol-1-yl]-1-(2-hydroxy-ethyl)-1H-pyridin-2-one] the value was 222 nM; for `COCCn1ccc(-n2c(C)nc(C#Cc3cccc(Cl)c3)c2C)cc1=O` [Example 29, 4-[4-(3-chloro-phenylethynyl)-2,5-dimethyl-imidazol-1-yl]-1-(2-methoxy-ethyl)-1H-pyridin-2-one], 58 nM; for `Cc1cccc(C#Cc2nc(C)n(-c3cc[nH]c(=O)c3)c2C)c1` [Example 30, 4-(2,5-dimethyl-4-m-tolylethynyl-imidazol-1-yl)-1H-pyridin-2-one], 211 nM.
In turn, `Cc1cccc(C#Cc2nc(C)n(-c3ccn(C)c(=O)c3)c2C)c1` [Example 31, 4-[2,5-dimethyl-4-m-tolylethynyl-imidazol-1-yl]-1-methyl-1H-pyridin-2-one] gave a Ki of 61 nM.
For `CCn1ccc(-n2c(C)nc(C#Cc3cccc(C)c3)c2C)cc1=O` [Example 32, 4-[2,5-dimethyl-4-m-tolylethynyl-imidazol-1-yl]-1-ethyl-1H-pyridin-2-one] the value was 46 nM; for `Cc1cccc(C#Cc2nc(C)n(-c3ccn(CCO)c(=O)c3)c2C)c1` [Example 33, 4-[2,5-dimethyl-4-m-tolylethynyl-imidazol-1-yl]-1-(2-hydroxy-ethyl)-1H-pyridin-2-one], 446 nM.
`COCCn1ccc(-n2c(C)nc(C#Cc3cccc(C)c3)c2C)cc1=O` [Example 34, 4-[2,5-dimethyl-4-m-tolylethynyl-imidazol-1-yl]-1-(2-methoxy-ethyl)-1H-pyridin-2-one]: the Ki is 87 nM.
For `Cc1nc(C#Cc2ccnc(Cl)c2)c(C)n1-c1cc[nH]c(=O)c1` [Example 35, 4-[4-(2-chloro-pyridin-4-ylethynyl)-2,5-dimethyl-imidazol-1-yl]-1H-pyridin-2-one] the value was 347 nM; for `Cc1nc(C#Cc2ccnc(Cl)c2)c(C)n1-c1ccn(C)c(=O)c1` [Example 36, 4-[4-(2-chloro-pyridin-4-ylethynyl)-2,5-dimethyl-imidazol-1-yl]-1-methyl-1H-pyridin-2-one], 173 nM.
As for `CCn1ccc(-n2c(C)nc(C#Cc3ccnc(Cl)c3)c2C)cc1=O` [Example 37, 4-[4-(2-chloro-pyridin-4-ylethynyl)-2,5-dimethyl-imidazol-1-yl]-1-ethyl-1H-pyridin-2-one], the figure is 238 nM; as for `COCCn1ccc(-n2c(C)nc(C#Cc3ccnc(Cl)c3)c2C)cc1=O` [Example 39, 4-[4-(2-chloro-pyridin-4-ylethynyl)-2,5-dimethyl-imidazol-1-yl]-1-(2-methoxy-ethyl)-1H-pyridin-2-one], 285 nM.
`Cc1nc(C#Cc2cccc(F)c2)c(C)n1-c1ccn(C)c(=O)c1` [Example 41, 4-[4-(3-fluoro-phenylethynyl)-2,5-dimethyl-imidazol-1-yl]-1-methyl-1H-pyridin-2-one] yielded a Ki of 52 nM.
The compound `Cc1nc(C#Cc2cccc(Cl)c2)c(C)n1-c1cnn(C)c(=O)c1` [Example 42, 5-[4-(3-chloro-phenylethynyl)-2,5-dimethyl-imidazol-1-yl]-2-methyl-2H-pyridazin-3-one] displayed a Ki of 38 nM.
For `Cc1nc(C#Cc2ccnc(Cl)c2)c(C)n1-c1cnn(C)c(=O)c1` [Example 43, 5-[4-(2-chloro-pyridin-4-ylethynyl)-2,5-dimethyl-imidazol-1-yl]-2-methyl-2H-pyridazin-3-one] the value was 306 nM.
For `Cc1cccc(C#Cc2nc(C)n(-c3cnn(C)c(=O)c3)c2C)c1` [Example 44, 5-(2,5-dimethyl-4-m-tolylethynyl-imidazol-1-yl)-2-methyl-2H-pyridazin-3-one] the value was 71 nM; for `Cc1cccc(C#Cc2nc(C)n(-c3cc(=O)n(C)cn3)c2C)c1` [Example 45, 6-(2,5-dimethyl-4-m-tolylethynyl-imidazol-1-yl)-3-methyl-3H-pyrimidin-4-one], 74 nM; for `Cc1nc(C#Cc2ccnc(Cl)c2)c(C)n1-c1cc(=O)n(C)cn1` [Example 46, 6-[4-(2-chloro-pyridin-4-ylethynyl)-2,5-dimethyl-imidazol-1-yl]-3-methyl-3H-pyrimidin-4-one], 569 nM.
For `CNC(=O)Cn1ccc(-n2cc(C#Cc3cccc(C)c3)nc2C)cc1=O` [Example 48, N-methyl-2-[4-(2-methyl-4-m-tolylethynyl-imidazol-1-yl)-2-oxo-2H-pyridin-1-yl]-acetamide] the value was 788 nM; for `Cc1cccc(C#Cc2cn(-c3ccn(CS(C)(=O)=O)c(=O)c3)c(C)n2)c1` [Example 50], 559 nM; for `CCn1ncc(-n2cc(C#Cc3cccc(C)c3)nc2C)cc1=O` [Example 51, 2-ethyl-5-(2-methyl-4-m-tolylethynyl-imidazol-1-yl)-2H-pyridazin-3-one], 53 nM.
Turning to `CCn1ncc(-n2cc(C#Cc3cccc(Cl)c3)nc2C)cc1=O` [Example 52, 5-[4-(3-Chloro-phenylethynyl)-2-methyl-imidazol-1-yl]-2-ethyl-2H-pyridazin-3-one], affinity was put at a Ki of 37 nM.
For `CCn1ncc(-n2cc(C#Cc3ccnc(Cl)c3)nc2C)cc1=O` [Example 53, 5-[4-(2-chloro-pyridin-4-ylethynyl)-2-methyl-imidazol-1-yl]-2-ethyl-2H-pyridazin-3-one] the value was 204 nM; for `COCCn1ncc(-n2cc(C#Cc3cccc(C)c3)nc2C)cc1=O` [Example 54, 2-(2-methoxy-ethyl)-5-(2-methyl-4-m-tolylethynyl-imidazol-1-yl)-2H-pyridazin-3-one], 131 nM.
As for `COCCn1ncc(-n2cc(C#Cc3cccc(Cl)c3)nc2C)cc1=O` [Example 55, 5-[4-(3-Chloro-phenylethynyl)-2-methyl-imidazol-1-yl]-2-(2-methoxy-ethyl)-2H-pyridazin-3-one], the figure is 93 nM; as for `COCCn1ncc(-n2cc(C#Cc3ccnc(Cl)c3)nc2C)cc1=O` [Example 56], 597 nM; as for `COCCn1ncc(-n2c(C)nc(C#Cc3ccnc(Cl)c3)c2C)cc1=O` [Example 57, 5-[4-(2-Chloro-pyridin-4-ylethynyl)-2,5-dimethyl-imidazol-1-yl]-2-(2-methoxy-ethyl)-2H-pyridazin-3-one], 808 nM.

Values taken from patent publication US8334287B2 (Hoffmann-La Roche Inc., priority 2009, dated 2012).
